“Also recorded” adds a separate entry of the source.
What was measured:
corneal kindled mouse = experiment: chronic corneal kindled mouse (CKM) model; assay type: in vivo, male CF-1 mice
Method: (§1) The antiseizure effects of racemic fenfluramine were assessed in three mouse models of acute and chronic seizures in naïve male CF-1 mice (Envigo (Indianapolis, Ind., USA); 18-35 g): 1) the acute maximal electroshock (MES) test; 2) the acute 44 mA 6 Hz test; and 3) the chronic corneal kindled mouse (CKM) model.
(§2) Methods: Testing progressed in three phases: identification, time course, and dose response. In the identification phase, mice were administered FFA (3, 10, 30 mg/kg, ip), vehicle, or retigabine (positive control, 20 or 50 mg/kg, ip) 0.5 or 2 hr before testing (n=4/group). […] Dose-dependent anticonvulsant activity of FFA was assessed by testing between 0.25 and 120 mg/kg (n=8/dose). The effect of FFA on mild motor impairment (MMI) in the fixed-speed rotarod (FSR) was assessed prior to the MES, 44 mA 6 Hz, and CKM tests.

[1] = fixed-speed rotarod, minimal motor impairment (MMI); assay type: in vivo, male CF-1 mice
Method: as §2

dizocilpine-treated mice [2] = experiment: spontaneous alternation in the Y-maze, dizocilpine-induced amnesia model; assay type: in vivo, Male Swiss OF-1 mice
dizocilpine-treated mice [3] = experiment: dizocilpine-induced learning deficits, statements covering both tests (Y-maze and passive avoidance); assay type: in vivo, Male Swiss OF-1 mice; conditions: mouse, in vivo
Method: Experiments were conducted to determine the dose-response effects of fenfluramine (FEN) and norfenfluramine (NOR), racemate and (+)- and (−)-isomers, in an in vivo mouse model; the dizocilpine-induced amnesia model (described below) is used to test responses to drugs acting at the sigma-1 receptor (S1R) (Maurice et al., 1994a,b; Maurice, et al., 1998, Neuroscience 83:413-428).
The drugs were administered intraperitoneally (“ip” or “IP”) with dizocilpine (0.15 mg/kg) and tested in the spontaneous alternation test on day 1 and in the passive avoidance test on days 2-3.
The apparatus consisted of a 2-compartment box, with one illuminated with white polyvinylchloride (PVC) walls and a transparent cover (15×20×15 cm high), one with black polyvinylchloride walls and cover (15×20×15 cm high), and a grid floor. A guillotine door separated each compartment. A 60 W lamp was positioned 40 cm above the apparatus lit the white compartment during the experimental period. Scrambled foot shocks (0.3 mA for 3 s) were delivered to the grid floor using a shock generator scrambler (Lafayette Instruments, Lafayette, Mass., USA). The guillotine door was initially closed during the training session. Each mouse was placed into the white compartment. After 5 s, the door was raised. When the mouse entered the darkened compartment and placed all its paws on the grid floor, the door was gently closed and the 3-scrambled foot shock was delivered for 3 s. The step-through latency, i.e., the latency spent to enter the dark compartment, and the level of sensitivity to the shock were recorded. The latter was evaluated as: 0=no sign; 1=flinching reactions; 2=flinching and vocalization reactions. The retention test was carried out 24 h after training. Each mouse was placed again into the white compartment. After 5 s, the door was raised. The step-through latency was recorded up to 300 s. Animals entered the darkened compartment or were gently pushed into it and the escape latency, i.e., the time spent to return into the white compartment, was also measured up to 300 s. Results were expressed as median and interquartile (25%-75%) range.
The Y-maze is made of grey PVC. Each arm is 40 cm long, 13 cm high, 3 cm wide at the bottom, 10 cm wide at the top, and converged at an equal angle. Each mouse was placed at the end of one arm and allowed to move freely through the maze during an 8-min session. The series of arm entries, including possible returns into the same arm, were checked visually. An alternation was defined as entries into all three arms on consecutive occasions. The number of maximum alternations was therefore the total number of arm entries minus two and the percentage of alternation was calculated as: actual alternations/maximum alternations)×100. Parameters included the percentage of alternation (memory index) and total number of arm entries (exploration index).

[4] = tested on: secondarily generalized focal seizures; experiment: acute 44 mA 6 Hz test; assay type: in vivo, male CF-1 mice
Method: as §1, §2

[5] = tested on: Generalized tonic-clonic seizures; experiment: acute maximal electroshock (MES) test; assay type: in vivo, male CF-1 mice
Method: as §1, §2

dizocilpine-treated mice [6] = experiment: step-through passive avoidance, dizocilpine-induced amnesia model; assay type: in vivo, Male Swiss OF-1 mice
6-Hz seizures = experiment: acute mouse 6-Hz model (FIG. 9); assay type: in vivo, NMRI mice
Method: FIG. 9 includes two graphs that summarize the effects of racemic fenfluramine (abbreviated herein as “FA,” “FFA” or “FEN”) treatment in 6-Hz mice, as described in Example 2. FIG. 9A is a bar graph showing the percentage of animals protected for mice treated with vehicle, with […], and with 5 mg/kg FA. […] Protection being defined as the absence of a seizure within the expected time frame (i.e. below the minimum seizure duration in VHC treated mice).
Rapid screening of possible anticonvulsants can be performed by using acute (instead of chronic) animal models of drug-resistant seizures. […] In addition to the protocol using 44 mA pulses, more “lenient” versions of the model using 22 mA or 32 mA currents are sometimes employed.

[7] = in vivo; cited from earlier work
[8] = tested on: homozygous scn1Lab−/− mutants; experiment: zebrafish locomotor assay (total distance in large movements, lardist); assay type: in vivo, zebrafish (Danio rerio)
Excerpt: (Baraban et al, 2013). Additional phenotypes of these mutants include: abnormal optokinetic response (OKR; 5 dpf); darkened pigmentation; death by 14 dpf; spontaneous seizure-like activity; abnormal (forebrain electrographic activity (3-7 dpf); seizure activity; lower levels of serotonin in scn1lab^−/− head homogenates at 7 dpf; zebrafish express orthologs of human serotonin (5HT) receptor subtypes at 5 dpf; nighttime hyperactivity (5 dpf); in open field-increased thigmotaxis. decreased movement (at 5 dpf); no differences in GABAergic neurons compared to wild type (5 dpf); 5-HT2a (hitr2aa/b) and S-HT2c; (htr2c11) orthologs expressed in larval heads in wild-type and scn1lab−/− mutants and in adult wild-type brains.
To assay the locomotor activity of homozygous scn1Lab−/− mutants and control WT scn1Lab+/+, zebrafish larvae were placed one larva per well in a 96-well plate in 100 μL of embryo medium from 4 to 8 days post-fertilization (dpf). Each day the larvae are tracked in an automated tracking device (ZebraBox™ apparatus; Viewpoint, Lyon, France) for 10 min after 30 min habituation (100-second integration interval). All recordings were performed at the same time during daytime period. The total distance in large movements was recorded and quantified using ZebraLab™ software (Viewpoint, Lyon, France). Data was pooled together from at least three independent experiments with at least 24 larvae per condition.
Scn1Lab^−/− mutants and WT scn1Lab+/+ larvae are arrayed in the same plate and treated at 6 days post fertilization (dpf) with the test compounds (25 μM), or VHC in individual wells of a 96-well plate. After incubation at 28° C. on a 14/10 hour light/dark cycle and 30-min chamber habituation 6 and 7 dpf larvae are tracked for locomotor activity for 10 min (100-second integration interval) under dark conditions. An incubation time of 1.5 hours is further referred to as short treatment (6 dpf). Furthermore, these larvae are analyzed after more than 22 hours incubation (7 dpf), i.e. long treatment. The total locomotor activity is quantified using the parameter lardist and plotted in cm. Data for each compound is pooled together from multiple independent experiments with at least 9 larvae per treatment condition.

[9] = tested on: homozygous scn1Lab−/− mutants; experiment: epileptiform activity, open-field recordings in larval forebrain (LFP assay); assay type: in vivo, zebrafish (Danio rerio)
[10] = tested on: WT scn1Lab+/+ zebrafish larvae; experiment: maximal tolerated concentration (MTC); assay type: in vivo, zebrafish (Danio rerio); conditions: no signs of toxicity in 12 out of 12 larvae within 48 hours of exposure
Method: To evaluate the maximal tolerated concentration (MTC) of each compound, 6 dpf-old WT scn1Lab+^+/+ zebrafish larvae were incubated in a 96-well plate (tissue culture plate, flat bottom, FALCON®, USA) with different concentrations of compound or VHC at 28° C. on a 14/10 hour light/dark cycle under standard aquaculture conditions (medium is replenished daily). Each larva was individually checked under the microscope during a period of 48 hours for the following signs of toxicity: decreased or no touch response upon a light touch of the tail, loss of posture, body deformation, edema, changes in heart rate or circulation and death. […] MTC was determined as 100 micromolar (μM) for (+)-fenfluramine and both norfenfluramine enantiomers. A MTC of 50 μM was determined for (−)-fenfluramine.

[11] = Table 5 YMT, drug alone 0.1 mg/kg ip
[12] = Table 5 YMT, drug alone 0.3 mg/kg ip
[13] = Table 6 YMT, drug alone 0.1 mg/kg ip
[14] = Table 6 YMT, drug alone 0.3 mg/kg ip
[15] = Table 5 STPA, drug alone 0.1 mg/kg ip
[16] = Table 5 STPA, drug alone 0.3 mg/kg ip
[17] = Table 6 STPA, drug alone 0.1 mg/kg ip
[18] = Table 6 STPA, drug alone 0.3 mg/kg ip

SMILES: CCNC(C)Cc1cccc(C(F)(F)F)c1 (racemic) [Fenfluramine, (RS)—N-ethyl-1-[3-(trifluoromethyl)phenyl]propan-2-amine]
- mice died (corneal kindled mouse; 90 mg/kg): 2 of 8
- mice died (corneal kindled mouse; 120 mg/kg): 6 of 8
- anticonvulsant activity (corneal kindled mouse; all doses tested): Minimal anticonvulsant activity at all doses tested
- Impairment ([1]; 6 Hz 44 mA section, 30 mg/kg at 0.25, 0.50, 1.00 and 2.00 hours): Some impairment found at a dose of 30 mg/kg at timepoints of 0.25, 0.50, 1.00, and
- Impairment ([1]; 6 Hz 44 mA section, 4 hours): no impairment
- Impairment ([1]; at doses used in the MES model): No impairment on rotarod at doses used in this model
- TD50 ([1]; male, CF-1, mouse, in vivo, intraperitoneal, reported under 6 Hz 44 mA, 95% CI 25.3 to 53.0): 34.6 mg/kg
- PP (%) (dizocilpine-treated mice [2]; Table 2 Y-Maze, drug alone 0.1 mg/kg IP): 1.3 ± 7.9%
- PP (%) (dizocilpine-treated mice [2]; Table 2 Y-Maze, drug alone 0.3 mg/kg IP): 37.9 ± 9.4%
- PP (%) (dizocilpine-treated mice [2]; Table 2 Y-Maze, drug alone 1 mg/kg IP): 59.8 ± 6.1 ^2%
- PP (%) (dizocilpine-treated mice [2]; [11]): 4.4 ± 7.7%
- PP (%) (dizocilpine-treated mice [2]; [12]): 33.6 ± 5.7^2%
- PP (%) (dizocilpine-treated mice [2]; [13]): -9.81 ± 7.6^ %
- PP (%) (dizocilpine-treated mice [2]; [14]): 26.6 ± 9.8 ^2%
- behavior in vivo at S1R (dizocilpine-treated mice [3]): behaved in vivo as S1R positive modulators
- protection ([4]; 4 hours): no protection
- ED50 ([4]; Mus musculus, 6 Hz 44 mA, 95% CI 31.9 to 66.7 mg/kg): 47 mg/kg
- activity in a model of focal seizures that secondarily generalize ([4]; mouse, in vivo): some activity
- protection ([5]; 0.5 hours, 3 mg/kg ip): 0%
- protection ([5]; 0.5 hours, 10 mg/kg ip): 0%
- protection ([5]; 0.5 hours, 30 mg/kg ip): 100%
- protection ([5]; 2.0 hours, 3 mg/kg ip): 75%
- protection ([5]; 2.0 hours, 10 mg/kg ip): 50%
- protection ([5]; 2.0 hours, 30 mg/kg ip): 100%
- protection, time course at last time point ([5]; 4 hours post dosing): 100% protection at 4 hours post dosing
- ED50 ([5]; Mus musculus, MES, Probit regression, 95% CI 1.4 to 5.1 mg/kg): 2.9 mg/kg
- anticonvulsant effect in the MES model ([5]; acute administration): substantial anticonvulsant effect
- PP (%) (dizocilpine-treated mice [6]; Table 2 StepThrough/Passive Avoidance, drug alone 0.1 mg/kg IP): 11.0 ± 11.6%
- PP (%) (dizocilpine-treated mice [6]; Table 2 StepThrough/Passive Avoidance, drug alone 0.3 mg/kg IP): 55.7 ± 10.5%
- PP (%) (dizocilpine-treated mice [6]; Table 2 StepThrough/Passive Avoidance, drug alone 1 mg/kg IP): 40.8 ± 13.0 ^4%
- PP (%) (dizocilpine-treated mice [6]; [15]): 11.2 + 12.0%
- PP (%) (dizocilpine-treated mice [6]; [16]): 65.5 ± 12.1^5%
- PP (%) (dizocilpine-treated mice [6]; [17]): 16.8 ± 14.2%
- PP (%) (dizocilpine-treated mice [6]; [18]): 60.1 ± 13.9 ^5%
- number of mice having seizures and duration of seizures (6-Hz seizures; 20 and 5 mg/kg (FIG. 9)): dose-dependent decrease
- seizures in the mouse 6-Hz model (6-Hz seizures; Mann-Whitney p<0.05 vs. VHC): significantly reduced seizures
- period of post-seizure aggression (6-Hz seizures; vehicle mice displayed it): did not

SMILES: CCN[C@@H](C)Cc1cccc(C(F)(F)F)c1 [(+)-Fenfluramine, (2S)-N-ethyl-1-[3-(trifluoromethyl)phenyl]propan-2-amine]
- PP (%) (dizocilpine-treated mice [2]; Table 3 Y-Maze, drug alone 0.1 mg/kg IP): 1.3 ± 7.9%
- PP (%) (dizocilpine-treated mice [2]; Table 3 Y-Maze, drug alone 0.3 mg/kg IP): 37.9 ± 9.4 ^2%
- PP (%) (dizocilpine-treated mice [2]; [11]): 8.68 ± 8.7%
- PP (%) (dizocilpine-treated mice [2]; [12]): 40.2 ± 11.3^3%
- PP (%) (dizocilpine-treated mice [2]; [13]): 0.4 ± 11.5%
- PP (%) (dizocilpine-treated mice [2]; [14]): 46.7 ± 8.9 ^3%
- behavior in vivo at S1R (dizocilpine-treated mice [3]): behaved in vivo as S1R positive modulators
- mean elimination half-life [7]: 19 h
- Conclusions ([8]; Table 1, locomotor and LFP assays): (+)-FFA is more effective than racemic FFA
- antiseizure activity in the zebrafish locomotor assay ([8]; scn1Lab−/− mutants): more efficacious than (−)-fenfluramine
- reduction in seizure behavior ([8]; scn1Lab−/− mutants, fixed concentration, FIG. 3): 84%
- potency in treating symptoms of epilepsy compared to levofenfluramine ([8]; zebrafish, in vivo): approximately twice
- anti-epileptiform activity (frequency and cumulative duration of epileptiform events over 10 minutes) ([9]; 50 micromolar, FIGS. 4 and 5): comparable
- LFP Assay ([9]; Table 1, 25, 59 and 100 μM, oral via embryo medium): Most effective in reducing spikes; also recorded: Normal dose-response; higher
- maximum tolerated concentration (MTC) [10]: 100 µM
- PP (%) (dizocilpine-treated mice [6]; Table 3 StepThrough/PassiveAvoidance, drug alone 0.1 mg/kg IP): 9.0 ± 15.8%
- PP (%) (dizocilpine-treated mice [6]; Table 3 StepThrough/PassiveAvoidance, drug alone 0.3 mg/kg IP): 24.8 ± 14.9 ^4%
- PP (%) (dizocilpine-treated mice [6]; [15]): 11.6 ± 13.6%
- PP (%) (dizocilpine-treated mice [6]; [16]): 35.2 ± 14.2^6%
- PP (%) (dizocilpine-treated mice [6]; [17]): 15.6 ± 17.3%
- PP (%) (dizocilpine-treated mice [6]; [18]): 31.9 ± 16.3 ^6%
